One compound from article PMC4894409 (Scientific Reports, 2015) can be followed below.

The test system of assay [1] is mice. The assay is described as follows: Forced swimming (FS) test. Format: in vivo, Male Swiss mice. The conditions noted are these: 5 or 10 mg/kg p.o., vs vehicle, p < 0.05. As to the method: (§1) Male Swiss mice (weighing between 25–30 g; 6–8 weeks old), provided by Central Animal House of the Federal University of Goiás, were used in all behavioural models. The experimental animals were kept in an intra-laboratory facility cage (32 × 18 × 16 cm) under controlled environmental conditions (23 ± 1 °C, 12 hr light-dark cycle) with access to food and water ad libitum. The experimental protocols (number 104/08) were approved by Ethical Committee of Federal University of Goiás in accordance to the international laws on the care and use of laboratory animals.
In the FS model, mice were randomly divided into 5 groups [control (vehicle), 3 different doses of OAD and IMI]. Mice were exposed to a modified version of FS test[48] after oral administration of vehicle, OAD (5, 10 or 20 mg/kg) or IMI 15 mg/kg. FS apparatus is a cylindrical water container (42 cm in height, 18 cm in diameter) filled with water up to 30 cm (total volume ( [drawing 1] of 7635.06 cm^3 at 24 ± 2 °C). In this model, the initial escape-directed behaviour like swimming and climbing by mouse are generally followed with a relatively passive and immobile posture. The container was cleaned with 10% ethanol solution prior to the exposure of naïve mouse. This test session (6-min duration) was videotaped and the swimming and immobility time was later scored and analyzed.

The subject of assay [2] is mice. The assay is described as follows: Open field (OF) test. The format is in vivo, Male Swiss mice. As to the method:
as §1
In the OF, animals were randomly divided into six groups [control (vehicle), 3 different doses of OAD, DZP 1 or 5 mg/kg]. Animals were treated with vehicle, OAD (5, 10 or 20 mg/kg, p.o), DZP (1 or 5 mg/kg, p.o) as described in our previous work[7][49], and placed in a circular open field [base area ( [drawing 2] ) = 62.80 cm^2 which is divided into 8 equal sectors enclosed in a 50 cm high wooden wall]. The test session (5-min duration) was videotaped in a sound-proof experimental room. Parameters like total crossing, freezing time, number of grooming and rearing activity, crossing at the centre and time spent at the centre of the open field were observed and scored.

A further assay has as its target T1, recombinant human MAO-A (Homo sapiens, UniProt P21397).
T1 construct: purchased BD Biosciences Bedford, MA, USA
T1 sequence (P21397 1-527): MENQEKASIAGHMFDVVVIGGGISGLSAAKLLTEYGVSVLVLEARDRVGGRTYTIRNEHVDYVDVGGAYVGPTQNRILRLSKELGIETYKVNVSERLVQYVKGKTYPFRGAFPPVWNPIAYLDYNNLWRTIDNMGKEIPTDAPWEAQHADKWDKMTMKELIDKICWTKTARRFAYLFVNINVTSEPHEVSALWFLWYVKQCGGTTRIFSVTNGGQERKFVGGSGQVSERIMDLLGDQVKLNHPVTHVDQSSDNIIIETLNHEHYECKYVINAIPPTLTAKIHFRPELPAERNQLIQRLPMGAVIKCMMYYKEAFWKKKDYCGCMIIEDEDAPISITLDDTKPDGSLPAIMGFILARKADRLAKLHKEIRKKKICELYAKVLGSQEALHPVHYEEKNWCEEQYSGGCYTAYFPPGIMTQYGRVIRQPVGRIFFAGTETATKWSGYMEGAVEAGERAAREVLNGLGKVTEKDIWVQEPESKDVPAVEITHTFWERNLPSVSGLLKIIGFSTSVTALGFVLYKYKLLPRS
The assay is described as follows: Kynuramine deamination inhibition assay, MAO-A. The conditions noted are these: 80 μM kynuramine, pH 7.4, 37 °C. The format is biochemical. As to the method: The assay was performed with the addition of inhibitor. Inhibition was calculated as percent of product formation compared to the corresponding control (enzyme-substrate reaction) without the inhibitors. The reactions were carried out in 0.1 M potassium phosphate buffer at pH 7.4. […] The compounds were dissolved in DMSO. The total reaction volume was 200 μL yielding a final DMSO concentration of 1.0% in the reaction mixture.

The target in the next assay is T2, 5-HT1A receptor (Mus musculus, UniProt Q64264).
T2 construct: The hippocampi of mice were dissected and homogenized in 5 volumes of ice-cold buffer; from tissue; host or cells: mouse hippocampus membranes
T2 sequence (Q64264 1-421): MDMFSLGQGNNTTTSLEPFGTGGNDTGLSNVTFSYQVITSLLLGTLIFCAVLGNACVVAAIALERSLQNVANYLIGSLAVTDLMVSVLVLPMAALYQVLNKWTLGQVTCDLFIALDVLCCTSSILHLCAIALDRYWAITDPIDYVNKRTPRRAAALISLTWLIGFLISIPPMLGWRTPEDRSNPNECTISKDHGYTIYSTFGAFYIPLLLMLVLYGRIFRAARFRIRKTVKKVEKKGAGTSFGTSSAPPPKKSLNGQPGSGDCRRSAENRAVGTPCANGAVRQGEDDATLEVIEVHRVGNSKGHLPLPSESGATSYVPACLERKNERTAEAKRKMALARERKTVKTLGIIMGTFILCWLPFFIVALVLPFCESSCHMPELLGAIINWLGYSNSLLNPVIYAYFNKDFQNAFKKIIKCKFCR
The assay is described as follows: [35S]GTPγS binding to mice hippocampal membranes. Format: biochemical. As to the method: The hippocampi of mice were dissected and homogenized in 5 volumes of ice-cold buffer (25 mM Tris-HCl, 0.5 mM dithiothreitol, and 0.5 mM EGTA, pH 7.4). The homogenate was centrifuged (1,000 × g for 5 min at 4 °C) and the resultant supernatant was removed. The remaining pellet was resuspended in buffer, homogenized, and centrifuged. The two supernatants obtained were combined and centrifuged at […] at 4 °C and the pellets were resuspended in membrane preparation buffer. The volumes were adjusted prior to the determination of protein concentration by Bradford method[56] and stored at −80 °C until required. […] The reactions were initiated by the addition of 25 μl [^35S]-GTPγS, followed by a 20 min incubation at 20 °C. The reactions were terminated by rapid filtration. The filters were placed in liquid scintillation cocktail in counting vials. The liquid scintillation spectroscopy was used to measure the radioactivity bound to the filter paper after 10 hour.
For orientation: GTPγS is a poorly hydrolysed GTP analogue; its binding reports G protein activation.

As a reminder, the IC50 is the concentration that gives 50% inhibition. The term Emax denotes the maximal effect, on the per cent scale that the assay sets.

Take `C=CC(=O)O[C@H]1CC[C@]2(C)[C@H]3CC=C4[C@@H]5CC(C)(C)CC[C@]5(C(=O)O)CC[C@@]4(C)[C@]3(C)CC[C@H]2C1(C)C` [D1, Oleanolic acid acrylate]: in the assay with mice [1], the “immobility time in the FS test” value was “reduction” and the “swimming time in the FS test” value is reported as “significant increase”. Besides, the “crossing at the centre of the OF” value with mice [2] (10 mg/kg p.o., vs vehicle) is recorded as “increase”. Besides, the “freezing time in the OF” value in the assay with mice [2] (20 mg/kg p.o., vs vehicle) is “increase”. Besides, the “other parameters of the OF test” value with mice [2] (5, 10, 20 mg/kg p.o., parameters not named as changed, p > 0.05) is listed as “not altered”. For the same compound, the “time spent at the centre of the OF” value in the assay on mice [2] (10 and 20 mg/kg p.o., vs vehicle) was “increase”. Also, the IC50 at recombinant human MAO-A was found to be 48.8 ± 1.94 µM. Further, the EC50 at 5-HT1A receptor (mice hippocampal membranes, read-out: Agonist potency (pEC50 ± SEM) (converted)) is 794 nM. On 5-HT1A receptor (percentage of that produced by 10 μM (+)8-OH-DPAT, read-out: Intrinsic activity (Emax ± SEM in %)), the Emax is 26 ± 2%.
